Here are results for 55 compounds from US7786040B2, “4-cyclopropyl-1,2,3,-thiadiazole compound, agrohorticultural plant disease controlling agent and method of using the same” (Nihon Nohyaku Co., Ltd., priority 2005, dated 2010).

In experiment [1] the test system is powdery mildew fungus (Blumeria graminis). The experiment in a line: Test Example 1: controlling effect by seed dressing against wheat powdery mildew. The experiment is classed as in vivo. The note with it: 0.15% active ingredient based on weight of dry seeds, inoculated 25 days after sowing, investigated 7 days after inoculation. The text has this:
(§1) Seeds of wheat (cultivar: chihoku komugi) and a wettable powder prepared according to Formulation Example were placed in a vinyl bag, followed by adding thereto a small volume of water, and they were mixed to conduct seed dressing. On the day after this treatment, the seeds sowed in a plastic pot of 10 cm diameter, and cultivated in a greenhouse. Twenty five days after sowing, the seedlings thus obtained were inoculated with powdery mildew fungus (Blumeria graminis) by sprinkling. Seven days after inoculation, the seedlings were investigated and infection index was estimated according to the criterion shown below, after which the control efficacy (%) was calculated. In this occasion, infection index on the untreated plot was 8.0. As comparative examples, the following compounds described in JP-A-2001-10909 were evaluated. • I: 3′-chloro-4,4′-dimethyl-1,2,3-thiadiazole-5-carboxanilide • II: benzyl 4-isopropyl-1,2,3-thiadiazole-5-carboxylate • III: methyl 4-cyclopropyl-1,2,3-thiadiazole-5-carboxylate • IV: 4-cyclopropyl-1,2,3-thiadiazole-5-carboxylic acid Infection Index • 0: No infection. • 0.5: Lesion area percentage: less than 10% • 1: Lesion area percentage; 10 to less than 20% • 2: Lesion area percentage; 20 to less than 30% • 3: Lesion area percentage; 30 to less than 40% • 4: Lesion area percentage; 40 to less than 50% • 5: Lesion area percentage; 50 to less than 60% • 6: Lesion area percentage; 60 to less than 70% • 7: Lesion area percentage; 70 to less than 80% • 8: Lesion area percentage; 80 to less than 90% • 9: Lesion area percentage; 90 to less than 100% • 10: Lesion area percentage; 100% Control efficacy (%)={1-(infection index on treated plot/infection index on untreated plot)}×100 Rank of Control Efficacy • A: Control efficacy 100-90% • B: Control efficacy 89-80% • C: Control efficacy 79-60% • D: Control efficacy 59-0%

The test system is the same in experiment [2]. The experiment in a line: Test Example 2: controlling effect by seed dressing against wheat powdery mildew, long-lasting effect. The note with it: 0.15% active ingredient based on weight of dry seeds, inoculated 50 days after sowing, investigated 7 days after inoculation. The experiment is classed as in vivo.
Description: as §1
Seeds of wheat (cultivar: Chihoku Komugi) and a wettable powder prepared according to Formulation Example were placed in a vinyl bag, followed by adding thereto a small volume of water, and they were mixed to conduct seed dressing. On the day after this treatment, the seeds sowed in a plastic pot of 10 cm diameter, and cultivated in a greenhouse. Fifty days after sowing, the seedlings thus obtained were inoculated with powdery mildew fungus (Blumeria graminis) by sprinkling. Seven days after inoculation, the seedlings were investigated and infection index was estimated according to the criterion shown below, after which the control efficacy (%) was calculated. In this occasion, infection index on the untreated plot was 8.0. As comparative examples, the above-described compounds I, II, III and IV were evaluated.

With `O=C(OCc1ccccc1Cl)c1snnc1C1CC1` [1-10, (2-chlorobenzyl)4-cyclopropyl-1,2,3-thiadiazole-5-carboxylate], the “Rank of control efficacy” value in experiment [1] and in experiment [2] was “B or more” throughout. Turning to `Cc1ccccc1COC(=O)c1snnc1C1CC1` [1-13], the “Rank of control efficacy” value in experiment [1] and in experiment [2] was “B or more” in each case. With `Cc1ccc(COC(=O)c2snnc2C2CC2)cc1` [1-15], the “Rank of control efficacy” value in experiment [1] and in experiment [2] was “B or more” throughout. On to `COc1ccccc1COC(=O)c1snnc1C1CC1` [1-16], for which the “Rank of control efficacy” value in experiment [1] and in experiment [2] was “B or more” in each case.

`COc1ccc(COC(=O)c2snnc2C2CC2)cc1` [1-18]: the “Rank of control efficacy” value in experiment [1] and in experiment [2] was “B or more” each time. On to `CC(C)(C)OC(=O)c1ccc(COC(=O)c2snnc2C2CC2)cc1` [1-25], for which, in experiment [1], the “Rank of control efficacy” value is “B or more”. Same read-out and setting: to `O=C(OCc1ccc(Cl)cc1Cl)c1snnc1C1CC1` [1-26] belongs “B or more”.

As to `CC(OC(=O)c1snnc1C1CC1)c1ccccc1` (stereo not shown) [1-41], the “Rank of control efficacy” value in experiment [1] and in experiment [2] was “B or more” in each case. With `Cc1ccc(C(C)OC(=O)c2snnc2C2CC2)cc1` (stereo not shown) [1-47], the “Rank of control efficacy” value in experiment [1] was “B or more”.

Turning to `COc1ccc(C(C)OC(=O)c2snnc2C2CC2)cc1` (stereo not shown) [1-50], the “Rank of control efficacy” value in experiment [1] and in experiment [2] was “B or more” throughout. With `O=C(NCc1ccc(Cl)cc1)c1snnc1C1CC1` [1-56], the “Rank of control efficacy” value in experiment [1] is reported as “B or more”.

As for `Cc1ccc(CNC(=O)c2snnc2C2CC2)cc1` [1-59], the “Rank of control efficacy” value in experiment [1] was “B or more”.

Turning to `COc1ccc(CNC(=O)c2snnc2C2CC2)cc1` [1-62], the “Rank of control efficacy” value in experiment [1] and in experiment [2] was “B or more” throughout. Regarding `Cc1ccc(Oc2ccc(CNC(=O)c3snnc3C3CC3)cc2)cc1` [1-65], in experiment [1], the “Rank of control efficacy” value is “B or more”. On the same count and under the same terms, as for `O=C(NCc1ccc(Oc2ccc(C(F)(F)F)cc2)cc1)c1snnc1C1CC1` [1-66], the entry is “B or more”. For the compound `O=C(NCc1ccc(OCC(F)(F)F)cc1)c1snnc1C1CC1` [1-68], the “Rank of control efficacy” value in experiment [1] and in experiment [2] was “B or more” in each case.

For `CN(Cc1ccccc1)C(=O)c1snnc1C1CC1` [1-82], the “Rank of control efficacy” value in experiment [1] and in experiment [2] was “B or more” each time. As to `COc1ccc(NC(=O)c2snnc2C2CC2)cc1OC` [1-97], the “Rank of control efficacy” value in experiment [1] and in experiment [2] was “B or more” throughout. As for `COC(c1ccc(NC(=O)c2snnc2C2CC2)cc1OC(C)C)(C(F)(F)F)C(F)(F)F` [1-103], the “Rank of control efficacy” value in experiment [1] is “B or more”. As to `O=C(Nc1nc2ccccc2s1)c1snnc1C1CC1` [1-111], the “Rank of control efficacy” value in experiment [1] and in experiment [2] was “B or more” each time.

`O=C(Nc1nnc(C(F)(F)F)s1)c1snnc1C1CC1` [1-112]: the “Rank of control efficacy” value in experiment [1] and in experiment [2] was “B or more” in each case. Take `O=C(NOCc1ccccc1)c1snnc1C1CC1` [1-113]: the “Rank of control efficacy” value in experiment [1] and in experiment [2] was “B or more” in each case.

Turning to `CS(=O)(=O)NC(=O)c1snnc1C1CC1` [1-120], the “Rank of control efficacy” value in experiment [1] was “B or more”. Same read-out and setting: as for `O=C(NS(=O)(=O)C(F)(F)F)c1snnc1C1CC1` [1-122], the entry is “B or more”.

On to `Cc1ccc(NC(=S)c2snnc2C2CC2)cc1Cl` [1-143, 3′-chloro-4-cyclopropyl-4′-methyl-1,2,3-thiadiazole-5-thiocarboxamilide], for which the “Rank of control efficacy” value in experiment [1] and in experiment [2] was “B or more” throughout. For the compound `COc1ccc(NC(=S)c2snnc2C2CC2)c(OC)c1` [1-144], the “Rank of control efficacy” value in experiment [1] and in experiment [2] was “B or more” each time. For the compound `C=CCNC(=O)c1snnc1C1CC1` [1-145], the “Rank of control efficacy” value in experiment [1] and in experiment [2] was “B or more” each time. `Cc1cccc(C)c1NC(=O)c1snnc1C1CC1` [1-151]: the “Rank of control efficacy” value in experiment [1] was “B or more”. The same measure, in the same setting: as for `CCc1cccc(CC)c1NC(=O)c1snnc1C1CC1` [1-152], the entry is “B or more”; as for `Cc1cccc(C)c1N(C(=O)c1snnc1C1CC1)C(=O)c1snnc1C1CC1` [1-153], “B or more”. Still for that read-out and setting: to `CCc1cccc(CC)c1N(C(=O)c1snnc1C1CC1)C(=O)c1snnc1C1CC1` [1-154] belongs “B or more”. For the compound `COc1ccc(OC)c(NC(=O)c2snnc2C2CC2)c1` [1-155], the “Rank of control efficacy” value in experiment [1] and in experiment [2] was “B or more” each time. On to `COc1ccc(NC(=O)c2snnc2C2CC2)c(C)c1` [1-156], for which the “Rank of control efficacy” value in experiment [1] and in experiment [2] was “B or more” in each case.

As to `O=C(NS(=O)(=O)c1ccc(Cl)cc1)c1snnc1C1CC1` [1-157], the “Rank of control efficacy” value in experiment [1] is recorded as “B or more”. The same measure, in the same setting: as for `O=C(NS(=O)(=O)c1ccccc1Cl)c1snnc1C1CC1` [1-158], the entry is “B or more”; as for `Cc1ccc(CNC(=O)c2snnc2C2CC2)c(C)c1` [1-162], “B or more”; as for `Cc1ccc(C)c(CNC(=O)c2snnc2C2CC2)c1` [1-163], “B or more”. The same measure, in the same setting: to `O=C(NCc1ccc(Cl)cc1Cl)c1snnc1C1CC1` [1-164] belongs “B or more”. In the case of `COc1cccc(CNC(=O)c2snnc2C2CC2)c1OC` [1-165], the “Rank of control efficacy” value in experiment [1] and in experiment [2] was “B or more” throughout. `COc1ccc(OC)c(CNC(=O)c2snnc2C2CC2)c1` [1-167]: the “Rank of control efficacy” value in experiment [1] and in experiment [2] was “B or more” throughout. For `COc1cc(CNC(=O)c2snnc2C2CC2)cc(OC)c1` [1-168], the “Rank of control efficacy” value in experiment [1] is “B or more”. As to `CCOC(=O)c1csc(NC(=O)c2snnc2C2CC2)n1` [1-169], the “Rank of control efficacy” value in experiment [1] and in experiment [2] was “B or more” throughout.

Consider `O=C(Nc1nc(-c2ccccc2)cs1)c1snnc1C1CC1` [1-170], for which the “Rank of control efficacy” value in experiment [1] and in experiment [2] was “B or more” in each case. For `CCOC(=O)c1sc(NC(=O)c2snnc2C2CC2)nc1C` [1-173], the “Rank of control efficacy” value in experiment [1] and in experiment [2] was “B or more” throughout. Take `Cc1nsc(NC(=O)c2snnc2C2CC2)c1Br` [1-174]: the “Rank of control efficacy” value in experiment [1] was “B or more”. `COc1cc(OC)nc(NC(=O)c2snnc2C2CC2)n1` [1-175]: the “Rank of control efficacy” value in experiment [1] and in experiment [2] was “B or more” in each case.

With `COc1cc(C)nc(NC(=O)c2snnc2C2CC2)n1` [1-176], the “Rank of control efficacy” value in experiment [1] and in experiment [2] was “B or more” in each case. Consider `Cc1cc(C)nc(NC(=O)c2snnc2C2CC2)n1` [1-177], for which the “Rank of control efficacy” value in experiment [1] and in experiment [2] was “B or more” in each case.

Consider `COc1ccc2nc(NC(=O)c3snnc3C3CC3)sc2c1` [1-180], for which the “Rank of control efficacy” value in experiment [1] was “B or more”. Same read-out and setting: to `CN(C)c1ccncc1.COc1ccc2nc(NC(=O)c3snnc3C3CC3)sc2c1` [1-181] belongs “B or more”; to `Cc1nc(-c2ccccc2NC(=O)c2snnc2C2CC2)no1` [1-182], “B or more”; to `O=C(NCc1cnc(Cl)s1)c1snnc1C1CC1` [1-185], “B or more”.

Turning to `O=C(Nc1cccc2c1C(=O)OC2)c1snnc1C1CC1` [1-186], the “Rank of control efficacy” value in experiment [1] is reported as “B or more”. Still for that read-out and setting: to `O=c1oc(-c2snnc2C2CC2)nc2ccccc12` [2-1, 2-(4-cyclopropyl-1,2,3-thiadiazol-5-yl)-4-H-3,1-benzoxazin-4-one] belongs “B or more”; to `CC(C)c1nnsc1C(=O)OCc1ccccc1` [II, benzyl 4-isopropyl-1,2,3-thiadiazole-5-carboxylate, reference compound], “C (Control efficacy 79-60%)”.
